From patent US9873709B2 (priority 2013, dated 2018)

Tested on: JAK1-dependent STAT6 phosphorylation downstream of IL-13 stimulation in TF-1 human erythroleukemia cells
Assay: cells
Conditions: TF-1, read-out: IL-13-pSTAT6 IC50

Structure (SMILES) | IC50
CN1CCC(N(C)C(=O)c2ccc(Nc3nc4c(C5=CCN(C(=O)[C@H]6CC[C@H](C#N)CC6)CC5)cccn4n3)cc2)CC1 [Example 2-350, 4-[[8-[1-(4-cyanocyclohexanecarbonyl)-3,6-dihydro-2H-pyridin-4-yl]-[1,2,4]triazolo[1,5-a]pyridin-2-yl]amino]-N-methyl-N-(1-methyl-4-piperidyl)benzamide] | 0.719 µM
O=C(CCC(F)(F)F)N1CC=C(c2cccn3nc(Nc4ccc(C(=O)N5CCC6(CCCN6)C5)cc4)nc23)CC1 (stereo not shown) [Example 2-377, 1-[4-[2-[4-(1,7-diazaspiro[4.4]nonane-7-carbonyl)anilino]-[1,2,4]triazolo[1,5-a]pyridin-8-yl]-3,6-dihydro-2H-pyridin-1-yl]-4,4,4-trifluoro-butan-1-one] | 0.0555 µM
O=C(CCC(F)(F)F)N1CC=C(c2cccn3nc(Nc4ccc(C(=O)N5CCC6(CCCCN6)C5)cc4)nc23)CC1 (stereo not shown) [Example 2-378, 1-[4-[2-[4-(2,6-diazaspiro[4.5]decane-2-carbonyl)anilino]-[1,2,4]triazolo[1,5-a]pyridin-8-yl]-3,6-dihydro-2H-pyridin-1-yl]-4,4,4-trifluoro-butan-1-one] | 0.238 µM
O=C(CCC(F)(F)F)N1CC=C(c2cccn3nc(Nc4ccc(C(=O)N5CCC6(CNC6)C5)cc4)nc23)CC1 [Example 2-379, 1-[4-[2-[4-(2,6-diazaspiro[3,4]octane-6-carbonyl)anilino]-[1,2,4]triazolo[1,5-a]pyridin-8-yl]-3,6-dihydro-2H-pyridin-1-yl]-4,4,4-trifluoro-butan-1-one] | 0.282 µM
O=C(CCC(F)(F)F)N1CC=C(c2cccn3nc(Nc4ccc(C(=O)N5CCC6(CC5)CNCCO6)cc4)nc23)CC1 [Example 2-380, 4,4,4-trifluoro-1-[4-[2-[4-(1-oxa-4,9-diazaspiro[5.5]undecane-9-carbonyl)anilino]-[1,2,4]triazolo[1,5-a]pyridin-8-yl]-3,6-dihydro-2H-pyridin-1-yl]butan-1-one] | 0.0384 µM
O=C(CCC(F)(F)F)N1CC=C(c2cccn3nc(Nc4ccc(C(=O)N5CCCC6(CCNCC6)C5)cc4)nc23)CC1 [Example 2-382, 1-[4-[2-[4-(2,9-diazaspiro[5.5]undecane-2-carbonyl)anilino]-[1,2,4]triazolo[1,5-a]pyridin-8-yl]-3,6-dihydro-2H-pyridin-1-yl]-4,4,4-trifluoro-butan-1-one] | 0.376 µM
O=C(CCC(F)(F)F)N1CC=C(c2cccn3nc(Nc4ccc(C(=O)N5CCCC6(CCCCN6)C5)cc4)nc23)CC1 (stereo not shown) [Example 2-383, 1-[4-[2-[4-(1,8-diazaspiro[5.5]undecane-8-carbonyl)anilino]-[1,2,4]triazolo[1,5-a]pyridin-8-yl]-3,6-dihydro-2H-pyridin-1-yl]-4,4,4-trifluoro-butan-1-one] | 0.009 µM
O=C(CCC(F)(F)F)N1CC=C(c2cccn3nc(Nc4ccc(C(=O)N5CCCC6(CCCN6)CC5)cc4)nc23)CC1 (stereo not shown) [Example 2-384, 1-[4-[2-[4-(1,9-diazaspiro[4.6]undecane-9-carbonyl)anilino]-[1,2,4]triazolo[1,5-a]pyridin-8-yl]-3,6-dihydro-2H-pyridin-1-yl]-4,4,4-trifluoro-butan-1-one] | 0.093 µM
O=C(NCC1CCCCN1)c1ccc(Nc2nc3c(C4=CCN(C(=O)CCC(F)(F)F)CC4)cccn3n2)cc1 (stereo not shown) [Example 2-385, N-(2-piperidylmethyl)-4-[[8-[1-(4,4,4-trifluorobutanoyl)-3,6-dihydro-2H-pyridin-4-yl]-[1,2,4]triazolo[1,5-a]pyridin-2-yl]amino]benzamide] | 0.174 µM
O=C(CCC(F)(F)F)N1CC=C(c2cccn3nc(Nc4ccc(C(=O)N5CCC6CNCC65)cc4)nc23)CC1 (stereo not shown) [Example 2-386, 1-[4-[2-[4-(3,3a,4,5,6,6a-hexahydro-2H-pyrrolo[2,3-c]pyrrole-1-carbonyl)anilino]-[1,2,4]triazolo[1,5-a]pyridin-8-yl]-3,6-dihydro-2H-pyridin-1-yl]-4,4,4-trifluoro-butan-1-one] | 0.155 µM
O=C(CCC(F)(F)F)N1CC=C(c2cccn3nc(Nc4ccc(C(=O)N5C[C@@H]6CCN[C@@H]6C5)cc4)nc23)CC1 [Example 2-387, 1-[4-[2-[4-[(3aS,6aS)-2,3,3a,4,6,6a-hexahydro-1H-pyrrolo[2,3-c]pyrrole-5-carbonyl]anilino]-[1,2,4]triazolo[1,5-a]pyridin-8-yl]-3,6-dihydro-2H-pyridin-1-yl]-4,4,4-trifluoro-butan-1-one] | 0.147 µM

The remaining lines, values ahead:

IC50 | Structure (SMILES)
0.0526 µM | CN1CCC(N(C)C(=O)c2ccc(Nc3nc4c(C5=CCN(C(=O)OCc6ccccc6)CC5)cccn4n3)cc2)CC1 [Example 2-351, benzyl 4-[2-[4-[methyl-(1-methyl-4-piperidyl)carbamoyl]anilino]-[1,2,4]triazolo[1,5-a]pyridin-8-yl]-3,6-dihydro-2H-pyridine-1-carboxylate]
0.0327 µM | CN1CCC(N(C)C(=O)c2ccc(Nc3nc4c(C5=CCN(C(=O)OCC6CC6)CC5)cccn4n3)cc2)CC1 [Example 2-353, cyclopropylmethyl 4-[2-[4-[methyl-(1-methyl-4-piperidyl)carbamoyl]anilino]-[1,2,4]triazolo[1,5-a]pyridin-8-yl]-3,6-dihydro-2H-pyridine-1-carboxylate]
0.0413 µM | CCOC(=O)N1CC=C(c2cccn3nc(Nc4ccc(C(=O)N5CCC(c6ccccn6)CC5)cc4)nc23)CC1 [Example 2-358, ethyl 4-[2-[4-[4-(2-pyridyl)piperidine-1-carbonyl]anilino]-[1,2,4]triazolo[1,5-a]pyridin-8-yl]-3,6-dihydro-2H-pyridine-1-carboxylate]
0.411 µM | CCOC(=O)N1CC=C(c2cccn3nc(Nc4ccc(C(=O)NC5CCNCC5)cc4)nc23)CC1 [Example 2-360, ethyl 4-[2-[4-(4-piperidylcarbamoyl)anilino]-[1,2,4]triazolo[1,5-a]pyridin-8-yl]-3,6-dihydro-2H-pyridine-1-carboxylate]
0.0089 µM | CCOC(=O)N1CC=C(c2cccn3nc(Nc4ccc(C(=O)N(C)Cc5ccncc5)cc4)nc23)CC1 [Example 2-361, ethyl 4-[2-[4-[methyl(4-pyridylmethyl)carbamoyl]anilino]-[1,2,4]triazolo[1,5-a]pyridin-8-yl]-3,6-dihydro-2H-pyridine-1-carboxylate]
0.229 µM | CCOC(=O)N1CC=C(c2cccn3nc(Nc4ccc(C(=O)NCCC5CCCN5)cc4)nc23)CC1 (stereo not shown) [Example 2-362, ethyl 4-[2-[4-(2-pyrrolidin-2-ylethylcarbamoyl)anilino]-[1,2,4]triazolo[1,5-a]pyridin-8-yl]-3,6-dihydro-2H-pyridine-1-carboxylate]
0.296 µM | CCOC(=O)N1CC=C(c2cccn3nc(Nc4ccc(C(=O)N5CC6(CCNC6)C5)cc4)nc23)CC1 [Example 2-372, ethyl 4-[2-[4-(2,7-diazaspiro[3.4]octane-2-carbonyl)anilino]-[1,2,4]triazolo[1,5-a]pyridin-8-yl]-3,6-dihydro-2H-pyridine-1-carboxylate]
0.0625 µM | CCOC(=O)N1CC=C(c2cccn3nc(Nc4ccc(C(=O)N(C)CCN)cc4)nc23)CC1 [Example 2-374, ethyl 4-[2-[4-[2-aminoethyl(methyl)carbamoyl]anilino]-[1,2,4]triazolo[1,5-a]pyridin-8-yl]-3,6-dihydro-2H-pyridine-1-carboxylate]
